Test results reported in patent US20240261274A1, “TREATMENT OF MYC-DRIVEN CANCERS WITH GSPT1 DEGRADERS” (MONTE ROSA THERAPEUTICS, INC., priority 2021, published 2024).

What was measured:
GSPT1 = GSPT1 (Homo sapiens, UniProt P15170+Q96SW2); assay: GSPT1 levels in tumors, PD analysis by western blotting (compound 8); type: in vivo, mice; parameters: from tissue; host or cells: NCI-H1155 subcutaneous xenograft tumours from BALB/c nude mice; conditions: 75 mg/kg and 37 mg/kg, respectively; 24 hr post third dose
Chain of GSPT1 (P15170 whole entry): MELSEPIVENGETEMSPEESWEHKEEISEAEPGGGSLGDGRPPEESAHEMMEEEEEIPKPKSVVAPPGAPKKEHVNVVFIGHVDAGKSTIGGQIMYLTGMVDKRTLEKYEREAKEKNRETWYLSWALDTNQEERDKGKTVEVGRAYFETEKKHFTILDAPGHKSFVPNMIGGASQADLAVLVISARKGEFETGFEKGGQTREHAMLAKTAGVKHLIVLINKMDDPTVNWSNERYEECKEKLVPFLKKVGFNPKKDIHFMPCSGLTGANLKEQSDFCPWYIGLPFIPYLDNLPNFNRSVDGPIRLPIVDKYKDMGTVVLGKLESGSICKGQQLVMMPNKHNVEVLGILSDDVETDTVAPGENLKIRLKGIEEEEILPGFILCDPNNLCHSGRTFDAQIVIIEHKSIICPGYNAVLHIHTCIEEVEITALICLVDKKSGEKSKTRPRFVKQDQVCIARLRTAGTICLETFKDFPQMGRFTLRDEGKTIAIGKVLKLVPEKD
Chain of GSPT1 (Q96SW2 whole entry): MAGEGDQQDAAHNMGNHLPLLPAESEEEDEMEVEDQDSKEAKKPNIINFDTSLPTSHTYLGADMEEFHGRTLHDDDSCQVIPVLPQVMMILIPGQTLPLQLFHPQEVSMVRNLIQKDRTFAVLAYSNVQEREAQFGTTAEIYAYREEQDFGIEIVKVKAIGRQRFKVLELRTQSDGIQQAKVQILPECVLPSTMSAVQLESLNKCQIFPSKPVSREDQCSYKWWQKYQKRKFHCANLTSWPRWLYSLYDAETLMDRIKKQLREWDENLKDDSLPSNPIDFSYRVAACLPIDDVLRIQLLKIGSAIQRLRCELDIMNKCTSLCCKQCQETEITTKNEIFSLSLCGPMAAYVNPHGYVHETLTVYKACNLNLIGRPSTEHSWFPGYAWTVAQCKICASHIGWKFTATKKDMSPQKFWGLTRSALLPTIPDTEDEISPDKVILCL
Chain of GSPT1 (Q16531 whole entry partner): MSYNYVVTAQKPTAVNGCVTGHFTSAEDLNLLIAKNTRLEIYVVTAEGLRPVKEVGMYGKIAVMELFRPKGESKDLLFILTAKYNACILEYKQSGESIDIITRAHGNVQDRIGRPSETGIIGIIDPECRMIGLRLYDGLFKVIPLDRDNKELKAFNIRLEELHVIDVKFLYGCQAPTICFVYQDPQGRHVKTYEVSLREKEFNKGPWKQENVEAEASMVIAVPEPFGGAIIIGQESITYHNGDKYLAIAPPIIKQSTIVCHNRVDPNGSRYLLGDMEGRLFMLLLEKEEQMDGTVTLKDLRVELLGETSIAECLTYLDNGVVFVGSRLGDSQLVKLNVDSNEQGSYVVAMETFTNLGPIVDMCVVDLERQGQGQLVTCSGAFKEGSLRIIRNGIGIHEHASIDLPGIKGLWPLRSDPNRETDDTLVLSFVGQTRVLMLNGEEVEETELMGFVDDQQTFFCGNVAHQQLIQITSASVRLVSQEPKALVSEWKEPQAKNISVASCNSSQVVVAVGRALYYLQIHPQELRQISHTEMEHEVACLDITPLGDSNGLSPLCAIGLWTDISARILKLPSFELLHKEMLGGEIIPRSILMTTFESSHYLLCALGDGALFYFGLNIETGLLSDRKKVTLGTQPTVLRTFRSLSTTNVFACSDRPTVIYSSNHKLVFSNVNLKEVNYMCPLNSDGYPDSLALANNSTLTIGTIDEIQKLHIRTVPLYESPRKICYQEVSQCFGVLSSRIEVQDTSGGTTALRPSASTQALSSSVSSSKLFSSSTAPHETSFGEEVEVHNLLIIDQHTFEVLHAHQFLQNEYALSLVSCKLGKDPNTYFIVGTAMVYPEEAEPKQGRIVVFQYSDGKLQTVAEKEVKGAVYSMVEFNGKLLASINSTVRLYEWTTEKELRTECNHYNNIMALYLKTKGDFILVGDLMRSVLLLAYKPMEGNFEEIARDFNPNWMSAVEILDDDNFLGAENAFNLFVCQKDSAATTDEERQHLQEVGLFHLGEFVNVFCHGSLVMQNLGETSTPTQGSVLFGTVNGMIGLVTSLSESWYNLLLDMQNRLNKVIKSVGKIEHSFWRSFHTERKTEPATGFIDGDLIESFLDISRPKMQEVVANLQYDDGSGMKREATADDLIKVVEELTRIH
Protocol: For the PD analysis, tumors were harvested 24 hr post third dose and GSPT1 total levels in tumors were determined by western blotting analysis. GADPH levels were measured as control Briefly, 30-50 mg of tumor was placed in 350 μL of RIPA buffer containing 1% Protease Inhibitor Cocktail and 1% Phosphatase Inhibitor Cocktail 2. Tumors were grinded using the Tissuelyser LT at 50 Hz for 5 min. the tissue lysates were kept on ice for 30 min, centrifuged at 12,000 rpm at 4° C. for 10 min and protein concentration measured using the Pierce™ BCA Protein Assay Kit as recommended by the manufacturer. Samples were diluted to the same final concentration (at 4 μg/μL) using RIPA buffer plus 4×LDS Sample Buffer and 10× Sample Reducing Agent and subsequently heat denatured at 100° C. for 10 min. Western blot analysis was performed using 5 μL per slot for each sample, loaded on a NuPAGE® 4-12% Bis-Tris gel, probing for GSPT1 (Sigma-HPA052488; 1/250 dilution) and GAPDH as loading control (CST-5174; 1/2000 dilution).

[1] = test system: MDA-MB-468, MDA-MB-231, MDA-MB-436 and CAL51 triple negative breast cancer models; assay: In vivo anti-tumor activity of compound 8 in triple negative breast cancer models; parameters: species or system mice; conditions: i.p. 37 and 75 mpk, 21 continuous days; all four models
Protocol: Shown are representative examples of triple negative breast cancer models with high 4EBP1 marker expression levels. Tumor growth was measured in MDA-MB-468 (ATCC HTB-132) (A), MDA-MB-231 (ATCC HTB-26) (B), MDA-MB-436 (ATCC HTB-130) (C) and CAL51 (DSMZ-ACC-302) (D) as indicated. compound 8 was dosed i.p at 37 and 75 mpk for 21 continuous days and tumor size measured every three days. Vehicle (black line), compound 8 dosed daily at 37 mpk (light grey) and 75 mpk (dark grey). X-axis represents days; y-axis represents the tumor volume (mm^3).

[2] = test system: NSCLC cell lines expressing high levels of N-Myc (NCI-H1155, ABC-1); assay: Viability of NSCLC cell lines treated with compound 210; type: cell-based, human; conditions: compared to low N-Myc lines EBC-1, NCI-H2023
Protocol: GSPT1 was degraded by compound 210 after six hours of treatment in high N-Myc NCI-H1155 and ABC-1 cells with a DC50 of 3 nM and 22 nM, respectively (x-axis represents M concentration of compound 210; y-axis represents the viability in %).

[3] = test system: MM1 S multiple myeloma cell line derived xenograft; assay: MM1 S multiple myeloma CDX efficacy study; type: in vivo, immunodeficient mice; conditions: oral daily 1, 3 and 10 mg/kg
Protocol: Cell line derived xenograft (CDX) models were produced for the MM1 S multiple myeloma (MM) cell line in immunodeficient mice. Oral dosing of Compound 345 was performed daily at doses of 1 mg/kg, 3 mg/kg, and 10 mg/kg as well as lenalidomide at 50 mg/kg and a no-drug vehicle control. Tumor volumes were measured (mm^3) at regular intervals over the course of 20 to 50 days depending on the animal.
(§1) In vivo efficacy study: NCI-H1155, MM1 S, WSU-DLCL2, DOHH-2 cells were maintained in vitro in individual medium and conditions as recommended by the providers and incubated at 37° C. in an atmosphere of 5% CO2 in air. 0.5 million (NCI-H1155), 10 million (MM1S) or 5 million (WSU-DLCL2 and DOHH-2) cells were resuspended in typically 0.1-0.2 mL of PBS with Matrigel (50:50) and were inoculated into 6-8 weeks old BALB/c nude female (NCI-H115, WSU-DLCL2), NOD/SCID (MM1S) or CB-17SCID (DOHH-2) mice and allowed to grow to 150-200 mm3 in size. Mice were dosed orally (PO) and daily (QD) with either vehicle or Compound 345 typically at 1.0 mg/kg, 3.0 mg/kg and 10 mg/kg. […] Tumor volumes were measured at least twice weekly during the treatment period using a caliper and the volume was expressed in mm3 using the formula: V=0.5 a×b2 where a and b were the long and short diameters of the tumor, respectively. […] Data are expressed as the mean±SEM. All data was analyzed using GraphPad Prism 8.1.2 (GraphPad).

[4] = test system: DOHH2 lymphoma cell line derived xenograft; assay: DOHH2 lymphoma CDX efficacy study; type: in vivo, immunodeficient mice; conditions: oral daily 3 mg/kg and 10 mg/kg
Protocol: Additionally, cell line derived xenograft (CDX) models were produced for lymphoma cell line (DOHH2) in immunodeficient mice. Oral dosing of Compound 345 was performed daily at doses of 3 mg/kg and 10 mg/kg as well as the CHOP combination (a well-known lymphoma treatment regimen) and a no-drug vehicle control. Tumor volumes were measured (mm^3) at regular intervals over the course of up to 30 days depending on the animal.
as §1, with “size.” for “size. Mice were dosed orally (PO) and daily (QD) with either vehicle or Compound 345 typically at 1.0 mg/kg, 3.0 mg/kg and 10 mg/kg.”

For `Cc1ccc(NC(=O)NCc2ccc3c(c2)C(=O)N(C2CCC(=O)NC2=O)C3)cc1Cl` (centres unmarked) [Compound 8], the “GSPT1 levels in tumors” value (GSPT1) was “no or insignificant amounts of GSPT1” and the “anti-tumor activity (tumor volume)” value [1] was “robust and dose-dependent anti-tumor activity, including regressions”.

In the case of `Cc1ccc(NC(=O)OCc2ccc3c(c2)C(=O)N(C2CCC(=O)NC2=O)C3)cc1Cl` (centres unmarked) [Compound 210], the “sensitivity to treatment (viability)” value [2] is reported as “highly sensitive”.

In the case of `O=C1CCC(N2Cc3ccc(COC(=O)Nc4cc(OC(F)(F)F)ccc4F)cc3C2=O)C(=O)N1` (centres unmarked) [Compound 345, (2-(2,6-dioxopiperidin-3-yl)-3-oxoisoindolin-5-yl)methyl(2-fluoro-5-(trifluoromethoxy)phenyl)carbamate], the tumor volume [3] is reported as “anti-tumor activity” and the tumor volume [4] is reported as “anti-tumor activity”.
